According to ChEMBL document CHEMBL1201862, “PubChem BioAssay data set” (2004):
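1) Cells in 96-well plates. 2) Compound, 48 h, 5 concentrations. 3) Linear interpolation between surrounding doses. 4) Unreached endpoint = highest concentration. The concentration for 50% growth inhibition is given as GI50.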 The source made the active and inactive calls. No stated cut-off is given here; in the data, active = GI50 up to about 1.1 µM and inactive = higher.

Key:
Assay in all cases: NCI anticancer screen, dose series, 48 h
NCI-H522 = tested on: NCI-H522
OVCAR-3 = tested on: OVCAR-3
NCI-H226 = tested on: NCI-H226
CAKI-1 = tested on: CAKI-1
KM-20L2 = tested on: KM-20L2
RXF 631 = tested on: RXF 631
COLO 205 = tested on: COLO 205
M19-MEL = tested on: M19-MEL
A498 = tested on: A498
LOX IMVI = tested on: LOX IMVI
SF-268 = tested on: SF-268
DMS-273 = tested on: DMS-273
SNB-75 = tested on: SNB-75
RXF 393 = tested on: RXF 393
HOP-62 = tested on: HOP-62
SK-MEL-2 = tested on: SK-MEL-2
786-0 = tested on: 786-0
SK-MEL-28 = tested on: SK-MEL-28
SN12C = tested on: SN12C
KM12 = tested on: KM12
SW-620 = tested on: SW-620
DMS-114 = tested on: DMS-114
HOP-92 = tested on: HOP-92
U-251 = tested on: U-251
MOLT-4 = tested on: MOLT-4
SF-539 = tested on: SF-539
NCI-H23 = tested on: NCI-H23
SK-MEL-5 = tested on: SK-MEL-5
HL-60 = tested on: HL-60
HCT-116 = tested on: HCT-116
SK-OV-3 = tested on: SK-OV-3
OVCAR-5 = tested on: OVCAR-5
SF-295 = tested on: SF-295
SNB-19 = tested on: SNB-19
TK-10 = tested on: TK-10
RPMI-8226 = tested on: RPMI-8226
LXFL 529 = tested on: LXFL 529
A549 = tested on: A549
HOP-18 = tested on: HOP-18
OVCAR-4 = tested on: OVCAR-4
DLD-1 = tested on: DLD-1
NCI-H460 = tested on: NCI-H460
IGROV-1 = tested on: IGROV-1
UO-31 = tested on: UO-31
ACHN = tested on: ACHN
CCRF-CEM = tested on: CCRF-CEM
UACC-257 = tested on: UACC-257
OVCAR-8 = tested on: OVCAR-8
UACC-62 = tested on: UACC-62
EKVX = tested on: EKVX
SNB-78 = tested on: SNB-78
M14 = tested on: M14
K562 = tested on: K562
Malme-3M = tested on: Malme-3M
XF498 = tested on: XF498
HCC 2998 = tested on: HCC 2998
HT-29 = tested on: HT-29
HCT-15 = tested on: HCT-15
SR = tested on: SR

Measured: GI50

Cc1ccc(-c2nnc3s/c(=C\c4ccc(N(C)C)cc4)c(=O)n23)cc1
inactive: NCI-H522 > 100 µM | OVCAR-3 > 100 µM | NCI-H226 > 100 µM | CAKI-1 > 100 µM | KM-20L2 > 100 µM | RXF 631 > 100 µM | COLO 205 > 100 µM | M19-MEL > 100 µM | A498 89.9 µM | LOX IMVI > 100 µM | SF-268 > 100 µM | DMS-273 > 100 µM | SNB-75 65.2 µM | RXF 393 > 100 µM | HOP-62 > 100 µM | SK-MEL-2 > 100 µM | 786-0 > 100 µM | SK-MEL-28 > 100 µM | SN12C > 100 µM | KM12 > 100 µM | SW-620 > 100 µM | DMS-114 > 100 µM | HOP-92 > 100 µM | U-251 > 100 µM | MOLT-4 > 100 µM | SF-539 > 100 µM | NCI-H23 > 100 µM | SK-MEL-5 > 100 µM | HL-60 > 100 µM | HCT-116 > 100 µM | SK-OV-3 > 100 µM | OVCAR-5 > 100 µM | SF-295 > 100 µM | SNB-19 > 100 µM | TK-10 > 100 µM | RPMI-8226 > 100 µM | LXFL 529 > 100 µM | A549 > 100 µM | HOP-18 > 100 µM | OVCAR-4 > 100 µM | DLD-1 > 100 µM | NCI-H460 > 100 µM | IGROV-1 > 100 µM | UO-31 > 100 µM | ACHN > 100 µM | CCRF-CEM > 100 µM | UACC-257 11.7 µM | OVCAR-8 > 100 µM | UACC-62 > 100 µM | EKVX > 100 µM | SNB-78 > 100 µM | M14 > 100 µM | K562 > 10 µM | Malme-3M > 100 µM | XF498 > 100 µM | HCC 2998 > 100 µM

O=[N+]([O-])c1ccc(Sc2c3ccccc3nc3cc(Cl)ccc23)cc1
> 10 µM: HCT-15
inactive: NCI-H522 > 10 µM | HT-29 > 100 µM | OVCAR-3 > 10 µM | NCI-H226 > 10 µM | CAKI-1 > 10 µM | KM-20L2 > 10 µM | RXF 631 > 10 µM | COLO 205 > 10 µM | M19-MEL > 10 µM | A498 > 10 µM | LOX IMVI > 10 µM | SF-268 > 10 µM | SNB-75 27.9 µM | RXF 393 37.5 µM | HOP-62 > 10 µM | SK-MEL-2 > 10 µM | SR 25.7 µM | 786-0 > 10 µM | SK-MEL-28 > 10 µM | SN12C > 10 µM | KM12 > 10 µM | SW-620 > 10 µM | DMS-114 > 10 µM | HOP-92 65.2 µM | U-251 > 10 µM | MOLT-4 34.4 µM | SF-539 > 10 µM | SK-MEL-5 > 10 µM | HL-60 40.9 µM | HCT-116 > 10 µM | SK-OV-3 > 10 µM | OVCAR-5 > 10 µM | SF-295 > 10 µM | SNB-19 > 10 µM | TK-10 > 10 µM | RPMI-8226 > 100 µM | LXFL 529 > 10 µM | HOP-18 > 10 µM | OVCAR-4 > 10 µM | DLD-1 > 10 µM | NCI-H460 > 10 µM | IGROV-1 > 10 µM | UO-31 > 10 µM | ACHN > 10 µM | CCRF-CEM 32.9 µM | UACC-257 > 10 µM | OVCAR-8 > 10 µM | UACC-62 > 10 µM | EKVX > 10 µM | SNB-78 > 10 µM | M14 > 10 µM | K562 > 10 µM | Malme-3M > 10 µM | XF498 32.7 µM | HCC 2998 > 10 µM
